Measured values taken from ChEMBL document CHEMBL3797118, “New Colchicine-Derived Triazoles and Their Influence on Cytotoxicity and Microtubule Morphology” (ACS Med Chem Lett, 2016).
Active and inactive are the calls of the source. No cut-off for these calls is given here.

Key:
HeLa = test: Cytotoxicity against human HeLa cells after 48 hrs by Celltiter-Glo luminescent cell viability assay; type: functional, cell-based
MDA-MB-231 [1] = test: Inhibition of microtubule network formation in human MDA-MB-231 cells assessed as centrosome declustering at 100 nM after 24 hrs by DAPI staining based immunofluorescence microscopic analysis; type: cell-based
[2] = Cytotoxicity against human SKMES1 cells after 48 hrs by Celltiter-Glo luminescent cell viability assay; type: functional, cell-based; details: SK-MES-1, 48 h
[3] = Cytotoxicity against human THP1 cells after 24 hrs by Celltiter-Glo luminescent cell viability assay; type: functional, cell-based; details: THP-1, 24 h
H1975 = test: Inhibition of microtubule network formation in human H1975 cells assessed as centrosome declustering at 500 nM after 24 hrs by DAPI staining based immunofluorescence microscopic analysis; type: cell-based
MDA-MB-231 [4] = test: Inhibition of microtubule network formation in human MDA-MB-231 cells at 100 nM after 24 hrs by DAPI staining based immunofluorescence microscopic analysis; type: cell-based
Jurkat = test: Cytotoxicity against human Jurkat cells after 48 hrs by Celltiter-Glo luminescent cell viability assay; type: functional, cell-based
A549 = test: Cytotoxicity against human A549 cells after 48 hrs by Celltiter-Glo luminescent cell viability assay; type: functional, cell-based; details: A549, 48 h

Structure (SMILES) | IC50 [3] | IC50 (Jurkat) | further results
COc1cc2c(c(OC)c1OC)-c1ccc(OC)c(=O)cc1[C@@H](n1cc(COC(=O)[C@H](Cc3ccccc3)NC(=O)OC(C)(C)C)nn1)CC2 | 4.1 nM | 15.3 nM | IC50 (HeLa; read-out: IC50): 70.7 nM; inhibition (MDA-MB-231 [1]): Active; IC50 [2]: 39.2 nM; inhibition (H1975): Active; inhibition (MDA-MB-231 [4]): Active; IC50 (A549): 73.7 nM
COc1cc2c(c(OC)c1OC)-c1ccc(OC)c(=O)cc1[C@@H](n1cc(COC(=O)[C@@H](NC(=O)OC(C)(C)C)C(C)C)nn1)CC2 | 8.1 nM |  | 
COc1cc2c(c(OC)c1OC)-c1ccc(OC)c(=O)cc1[C@@H](n1cc(COC(=O)[C@H](CC(C)C)NC(=O)OC(C)(C)C)nn1)CC2 | 6.6 nM |  | 
COc1cc2c(c(OC)c1OC)-c1ccc(OC)c(=O)cc1[C@@H](NC(C)=O)CC2 [COLCHICINE] | 20.4 nM |  | IC50 (HeLa; read-out: IC50): 21.8 nM; IC50 [2]: 18.6 nM; inhibition (MDA-MB-231 [4]): Active; IC50 (A549): 23.9 nM
COc1cc2c(c(OC)c1OC)-c1ccc(OC)c(=O)cc1[C@@H](n1cc(COC(=O)[C@H](Cc3ccccc3)NC(=O)OCc3ccccc3)nn1)CC2 | 23.3 nM | 21.4 nM | 
COc1cc2c(c(OC)c1OC)-c1ccc(OC)c(=O)cc1[C@@H](n1cc(COC(=O)[C@H](CCSC)NC(=O)OC(C)(C)C)nn1)CC2 | 10.6 nM |  | 
COc1cc2c(c(OC)c1OC)-c1ccc(OC)c(=O)cc1[C@@H](n1cc(COC(=O)[C@@H](N)Cc3ccccc3)nn1)CC2 | 24 nM | 25.1 nM | 
COc1cc2c(c(OC)c1OC)-c1ccc(OC)c(=O)cc1[C@@H](N=[N+]=[N-])CC2 | 20.9 nM |  | 
COc1cc2c(c(OC)c1OC)-c1ccc(OC)c(=O)cc1[C@@H](n1cc(COC(=O)[C@H](Cc3c[nH]c4ccccc34)NC(=O)OC(C)(C)C)nn1)CC2 | 7.3 nM |  | 
COc1cc2c(c(OC)c1OC)-c1ccc(OC)c(=O)cc1[C@@H](n1cc(CCCCC(=O)OCc3ccccc3)nn1)CC2 | 35.2 nM | 16.7 nM | 
COc1cc2c(c(OC)c1OC)-c1ccc(OC)c(=O)cc1[C@@H](n1cc(CCC(=O)OCc3cccc(F)c3)nn1)CC2 | 9.3 nM | 4.9 nM | 
CC(=O)O[C@H]1C(=O)[C@@]2(C)[C@H]([C@H](OC(=O)c3ccccc3)[C@]3(O)C[C@H](OC(=O)[C@H](O)[C@@H](NC(=O)c4ccccc4)c4ccccc4)C(C)=C1C3(C)C)[C@]1(OC(C)=O)CO[C@@H]1C[C@@H]2O [PACLITAXEL] |  |  | IC50 (HeLa): 18.9 nM; IC50 [2]: 13.5 nM; inhibition (MDA-MB-231 [4]): inactive; IC50 (A549): 13.2 nM
COc1cc2c(c(OC)c1OC)-c1ccc(OC)c(=O)cc1[C@@H](n1cc(CCC(=O)OCc3ccccc3F)nn1)CC2 | 12.7 nM | 9.7 nM | 
CC[C@H](C)[C@H](NC(=O)OC(C)(C)C)C(=O)OCc1cn([C@H]2CCc3cc(OC)c(OC)c(OC)c3-c3ccc(OC)c(=O)cc32)nn1 | 17.3 nM |  | 
COc1cc2c(c(OC)c1OC)-c1ccc(OC)c(=O)cc1[C@@H](n1cc(CCC(=O)OCc3ccccc3)nn1)CC2 | 31 nM |  | 
COc1cc2c(c(OC)c1OC)-c1ccc(OC)c(=O)cc1[C@@H](n1cc(COC(=O)[C@H](Cc3ccccc3)NC(C)=O)nn1)CC2 | 25.5 nM | 84.2 nM | 
COc1cc2c(c(OC)c1OC)-c1ccc(OC)c(=O)cc1[C@@H](n1cc(COC(=O)CCCCCNC(=O)OC(C)(C)C)nn1)CC2 | 5.4 nM | 9.4 nM | 
COc1cc2c(c(OC)c1OC)-c1ccc(OC)c(=O)cc1[C@@H](n1cc(C(=O)OCc3ccccc3)nn1)CC2 | 140 nM |  | 
COc1cc2c(c(OC)c1OC)-c1ccc(OC)c(=O)cc1[C@@H](n1cc(CCC(=O)OCc3ccc(F)cc3)nn1)CC2 | 5.1 nM | 2.9 nM | IC50 (HeLa; read-out: IC50): 4.9 nM; IC50 [2]: 3.5 nM; inhibition (MDA-MB-231 [4]): Active; IC50 (A549): 5.5 nM
COc1cc2c(c(OC)c1OC)-c1ccc(OC)c(=O)cc1[C@@H](n1cc(CNC(=O)OC(C)(C)C)nn1)CC2 | 23.1 nM |  | 
COc1cc2c(c(OC)c1OC)-c1ccc(OC)c(=O)cc1[C@@H](n1cc(COC(=O)CCNC(=O)OC(C)(C)C)nn1)CC2 | 5.7 nM | 5 nM | IC50 (HeLa; read-out: IC50): 20 nM; IC50 [2]: 9.6 nM; inhibition (MDA-MB-231 [4]): Active; IC50 (A549): 25.4 nM
